From paper PMC5059489, “Mechanistic evaluation and transcriptional signature of a glutathione S-transferase omega 1 inhibitor” (Nature Communications, 2016) come the findings set out here.

One experiment deals with PDI (Homo sapiens, UniProt P07237). Description: PDI activity assay (PDI-catalysed reduction of insulin). Particulars: for Fold selectivity: GSTO1 versus PDI enzyme inhibition; for IC50: inhibition of PDI-catalyzed reduction of insulin. In kind it is biochemical. More on the design: made in house.
PDI, sequence (P07237 18-508, species assumed): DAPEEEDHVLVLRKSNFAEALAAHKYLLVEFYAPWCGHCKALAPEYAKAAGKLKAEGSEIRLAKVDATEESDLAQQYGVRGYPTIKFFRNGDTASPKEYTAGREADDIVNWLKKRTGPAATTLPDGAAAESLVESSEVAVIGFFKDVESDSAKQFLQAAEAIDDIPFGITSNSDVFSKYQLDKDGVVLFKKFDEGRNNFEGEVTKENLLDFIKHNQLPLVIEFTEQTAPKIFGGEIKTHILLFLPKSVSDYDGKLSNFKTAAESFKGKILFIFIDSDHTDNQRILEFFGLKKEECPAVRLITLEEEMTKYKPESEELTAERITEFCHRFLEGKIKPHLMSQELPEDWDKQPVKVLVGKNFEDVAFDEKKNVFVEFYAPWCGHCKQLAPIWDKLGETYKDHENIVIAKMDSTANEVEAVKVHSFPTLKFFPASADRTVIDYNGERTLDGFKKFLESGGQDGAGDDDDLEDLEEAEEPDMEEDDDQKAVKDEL
Experiment [1] addresses T1, GSTO1 (Homo sapiens, UniProt P78417).
T1 sequence (P78417 1-241): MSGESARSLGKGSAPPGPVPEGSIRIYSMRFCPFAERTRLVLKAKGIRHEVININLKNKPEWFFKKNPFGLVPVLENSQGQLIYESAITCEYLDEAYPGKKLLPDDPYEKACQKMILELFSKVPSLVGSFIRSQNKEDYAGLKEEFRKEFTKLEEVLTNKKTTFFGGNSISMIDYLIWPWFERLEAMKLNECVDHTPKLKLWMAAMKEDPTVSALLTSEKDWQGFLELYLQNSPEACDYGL
Description: GSTO1 substrate assay (reduction of 4-NPG). The conditions noted are these: for IC50: read-out: GSTO substrate assay IC50, cluster screening tables.
Description: For activity screening, we adapted a GSTO1 substrate assay that relies on the quantification of the reduction of S-(4-nitrophenacyl)glutathione (4-NPG), a GSTO1-specific substrate[17], using recombinant human GSTO1 in a high-throughput screening format.
Enzyme activity was measured by monitoring the reduction of 4-NPG to 4-nitroacetophenone by GSTO1.

Experiment [2] addresses T1, GSTO1. Description: In-gel fluorescence competitive CMFDA binding assay, recombinant GSTO1. Particulars: inhibition of CMFDA binding.
Description: (§2) Primary screening of GSTO inhibitors was based on competitive inhibition of CMFDA binding to endogenous GSTO. Briefly, HCT116^p53+/+ cells (4 × 10^4 per well) were coated in a 12-well plate. […] Cells were then washed with PBS and lysed using Cell Lytic M buffer (Sigma). […] Gels were immediately scanned on a Typhoon variable mode imager (Amersham Bioscience). Quantification of fluorescent band intensity was done using Image Quant 5.2 software.
The next experiment has as its system HT29. Description: MTT cytotoxicity GI50, HT29. In kind it is cell-based. The method, then:
(§1) Cell proliferation was assessed by a MTT assay. Cancer cells were seeded in 96-well microtitre plates and, after overnight attachment, treated with GSTO1 inhibitors. After 72 h, MTT solution (3 mg ml^−1; 20 μl) was added to each well and cells were incubated for 3 h at 37 °C. After incubation, media from each well was removed and the dark blue formazan crystals formed by live cells were dissolved in DMSO (150 μl per well). The absorbance intensity was measured at 570 nm on a microplate reader (Molecular Devices, Sunnyvale, CA, USA). Cell viability after 24 h treatment was assessed using ApoTox-Glo triplex assay (Promega) according to the manufacturer's protocol. At least three independent dose–response experiments with each concentration tested in triplicate were performed for each cell line.

A further experiment deals with HCT116. Description: MTT cytotoxicity GI50, HCT116. It counts as cell-based, human. The method, then: as §1
The next experiment addresses T2, endogenous GSTO1 (Homo sapiens, UniProt P78417).
T2 sequence (P78417 1-241): T1 sequence (P78417 1-241)
Briefly: In-gel fluorescence competitive CMFDA binding assay, endogenous GSTO1 in HCT116. Particulars: for GSTO binding assay (% Inhibition at 10 µM) Endogenous: inhibition of CMFDA binding, HCT116; for IC50: read-out: Competitive Binding assay Endogenous GSTO1 IC50.

For another experiment, the system named is HCT116p53+/+ cell. Briefly: MTT cell proliferation at single concentration. It counts as cell-based, human. An outline of the steps:
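MTT read-out (formazan in DMSO, 570 nm) after 3 h dye incubation at 37 °C, following 72 h inhibitor treatment of overnight-attached cells. Triplicate concentrations; ≥3 independent dose–response runs per line.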

Another experiment concerns HCT116 cells. Description: Bru-seq nascent RNA profiling. Particulars: C1-14 (10 μM) 4 h vs DMSO.

Molecules are shown by their SMILES. “And” between values parts separate entries of the source, which are not always exact repeats. Identical values can stand only once.

Description for HCT116 cells: The data set was analysed using the DAVID, ingenuity pathway analysis (IPA) and GSEA for pathway identification. […] Data sets with nearly 250 genes containing the gene identifiers and fold changes were uploaded to the IPA web-based application and each gene identifier was mapped to its corresponding gene object in the ingenuity pathways knowledge base. Finally, the biological function genes were ordered by P value of significance and maximum number of genes in the pathway. Bru-Seq data were further analysed using GSEA for exploring the mechanism of cellular action of GSTO1 and its inhibitor. A pre-ranked gene list of the Bru-Seq data set was submitted to GSEA, and enrichment analysis was done based on the Kolmogorov–Smirnov statistic[59][60]. […] For each gene set, the ES (enrichment score) was normalized to account for differences in gene set size and the false discovery rate relative to the normalized enrichment score values was calculated.
Description for PDI: The reduction reaction was catalysed by PDI at room temperature, and the resulting aggregation of reduced insulin B chains was measured at 620 nm. % PDI activity was calculated from absorbance values at T=0 and 80 min.
Description for endogenous GSTO1: as §2

One may read the IC50 as the concentration needed to halve the response being measured. As a reminder, the GI50 is the concentration at which growth is held to half of that of the control. A high value points to less potent growth inhibition. As for `CCOC(=O)c1c(NC(=O)CCl)sc2c1CCCCC2` [C2-16], on PDI, the Fold selectivity came out at 61.1 and the IC50 is 4.03 ± 0.72 µM. Also, on GSTO1 [1], the “GSTO substrate assay % Inhibition at 10 µM” value is 73.0% and the IC50 came to 0.066 µM. For the same molecule, at GSTO1 [2], the “GSTO binding assay (% Inhibition at 10 µM) Recombinant” value was found to be 54.7%. The molecule further showed a GI50 in the experiment with HT29 of 19.8 µM. In addition, in the experiment on HCT116, the 50% growth inhibitory concentration (GI50) was > 20 µM. At endogenous GSTO1, the “GSTO binding assay (% Inhibition at 10 µM) Endogenous” value amounted to 53.0% and the half-inhibitory concentration (IC50) came out at 0.52 µM.

Turning to `CC1CCc2c(sc(NC(=O)CCl)c2C(N)=O)C1` (stereo not drawn) [C2-18], the IC50 was > 10 µM on PDI, 0.119 µM on GSTO1 [1] and 0.075 µM on endogenous GSTO1. For the same molecule, on GSTO1 [1], the “GSTO substrate assay % Inhibition at 10 µM” value was found to be 78.7%. Besides, the “GSTO binding assay (% Inhibition at 10 µM) Recombinant” value on GSTO1 [2] turned out to be 72.8%. Besides, the GI50 with HT29 worked out at 9.5 ± 2.8 µM; in the experiment on HCT116, 6.9 ± 1.9 µM. Further, the “% Inhibition of HCT116p53+/+ cell proliferation at 10 µM” value in the experiment on HCT116p53+/+ cell is given as 82.1%.

Take `CN(C)c1ccc(Cl)cc1NC(=O)CCl` [C1-14]: at GSTO1 [1], the “GSTO substrate assay % Inhibition at 10 µM” value came to 16.5%. Also, the “GSTO binding assay (% Inhibition at 10 µM) Recombinant” value on GSTO1 [2] is -15.6%. Further, in the experiment with HCT116 cells, the ATP5L2 fold change is on record as 0.70, the ATP6AP1L fold change was found to be 0.71, the AURKAPS1 fold change came to 0.68 and the BACE1-AS fold change came out at 0.60. In the experiment on HCT116 cells, the HFM1 fold change was 8.78, the HIST1H1E fold change was 8.67, the HIST1H2AC fold change is reported as 5.52 and the HIST1H2AG fold change is 10.36. In the experiment with HCT116 cells, this molecule displayed an HIST1H2AH fold change of 6.00, an HIST1H2AI fold change of 8.25, an HIST1H2AJ fold change of 11.27 and an HIST1H2BJ fold change of 5.45. For the same molecule, in the experiment on HCT116 cells, the HIST1H2BL fold change is 15.96, the HIST1H2BN fold change stood at 5.80, the HIST1H3H fold change is 6.41 and the HIST1H4C fold change is on record as 5.72. Also, in the experiment on HCT116 cells, the HIST1H4D fold change turned out to be 7.81, the HIST1H4K fold change is recorded as 18.57, the HIST2H2AB fold change was found to be 5.21 and the HIST2H3D fold change is on record as 7.39. Besides, in the experiment on HCT116 cells, the HIST3H2BB fold change stood at 6.97, the HIST4H4 fold change is recorded as 7.84, the HSP90AB4P fold change was determined as 0.72 and the HUS1B fold change worked out at 0.46. Besides, in the experiment on HCT116 cells, the IER3 fold change was 0.72, the LINC00115 fold change turned out to be 0.64, the LINC00311 fold change is given as 0.62 and the LINC00471 fold change was 0.67. In the experiment on HCT116 cells, the P2RX5-TAX1BP3 fold change was 0.65, the REP15 fold change was 0.70, the RIBC2 fold change stood at 0.70 and the RPA4 fold change came out at 0.69. Further, in the experiment on HCT116 cells, the RPPH1 fold change is on record as 16.74, the SCARNA10 fold change is 5.37, the SLC7A5P1 fold change turned out to be 0.38 and the TIGD6 fold change stood at 0.71. In the experiment on HCT116 cells, the TNFAIP3 fold change is reported as 0.71, the TYRO3P fold change is listed as 0.65, the ZNF572 fold change is listed as 0.70 and the ZNF670-ZNF695 fold change came out at 0.58. In addition, the “GSTO binding assay (% Inhibition at 10 µM) Endogenous” value at endogenous GSTO1 amounted to 6.7%.

On to `O=C(CCl)Nc1ccc(S(=O)(=O)C(F)F)cc1` [C1-24], for which the Fold selectivity on PDI is 24.1. Further, the IC50 against PDI was 3.57 ± 0.69 µM; on GSTO1 [1], 0.148 µM. Besides, on GSTO1 [1], the “GSTO substrate assay % Inhibition at 10 µM” value worked out at 77%. The “GSTO binding assay (% Inhibition at 10 µM) Recombinant” value on GSTO1 [2] came to 68.4%. The values for the GI50 in the experiment on HT29 and in the experiment on HCT116 were 5.1 ± 1.3 µM and 3.3 ± 1.1 µM, respectively. Further, the “GSTO binding assay (% Inhibition at 10 µM) Endogenous” value on endogenous GSTO1 was 62.1%. Further, the “% Inhibition of HCT116p53+/+ cell proliferation at 10 µM” value in the experiment with HCT116p53+/+ cell is 89.5% and 91.8%.

For the molecule `CCN(CC(=O)NC1CCS(=O)(=O)C1)C(=O)CCl` (stereo not drawn) [C4-13], the “GSTO substrate assay % Inhibition at 10 µM” value at GSTO1 [1] is reported as 27.2%. Moreover, on GSTO1 [2], the “GSTO binding assay (% Inhibition at 10 µM) Recombinant” value is listed as 5.1%. In addition, at endogenous GSTO1, the “GSTO binding assay (% Inhibition at 10 µM) Endogenous” value was 7.3%. In the experiment with HCT116p53+/+ cell, the “% Inhibition of HCT116p53+/+ cell proliferation at 10 µM” value was 62.3% and 67.3%.

Consider `CC(=O)c1cc2c(cc1NC(=O)CCl)OCO2` [C1-9], for which, on GSTO1 [1], the “GSTO substrate assay % Inhibition at 10 µM” value is 12.5%. Moreover, the “GSTO binding assay (% Inhibition at 10 µM) Recombinant” value on GSTO1 [2] turned out to be 56.5%. The “GSTO binding assay (% Inhibition at 10 µM) Endogenous” value at endogenous GSTO1 was 39.3%. Besides, the “% Inhibition of HCT116p53+/+ cell proliferation at 10 µM” value in the experiment with HCT116p53+/+ cell is recorded as -1.2%.

Regarding `Cc1ccc(C)c(S(=O)(=O)N2CCN(C(=O)CCl)CC2)c1` [C5-12], on GSTO1 [1], the “GSTO substrate assay % Inhibition at 10 µM” value is reported as 84.9%. Moreover, on GSTO1 [2], the “GSTO binding assay (% Inhibition at 10 µM) Recombinant” value was 66.0%. Also, the “GSTO binding assay (% Inhibition at 10 µM) Endogenous” value at endogenous GSTO1 is recorded as 47.1%. The “% Inhibition of HCT116p53+/+ cell proliferation at 10 µM” value with HCT116p53+/+ cell is reported as 7.3%.

With `O=C(CCl)N1CCN(c2ccccc2F)CC1` [C5-3], on GSTO1 [1], the “GSTO substrate assay % Inhibition at 10 µM” value is recorded as 59.8%. In addition, the “GSTO binding assay (% Inhibition at 10 µM) Recombinant” value at GSTO1 [2] is 9.4%. For the same molecule, at endogenous GSTO1, the “GSTO binding assay (% Inhibition at 10 µM) Endogenous” value is recorded as 61.5%. Besides, in the experiment with HCT116p53+/+ cell, the “% Inhibition of HCT116p53+/+ cell proliferation at 10 µM” value is 28.2%.

For `CCN(CC)S(=O)(=O)c1ccc(CNC(=O)CCl)cc1` [C3-2], at GSTO1 [1], the “GSTO substrate assay % Inhibition at 10 µM” value is on record as 86.4% and the 50% inhibitory concentration (IC50) amounted to 1.48 µM. Also, the “GSTO binding assay (% Inhibition at 10 µM) Recombinant” value at GSTO1 [2] is reported as 63.3%. Moreover, the “GSTO binding assay (% Inhibition at 10 µM) Endogenous” value on endogenous GSTO1 amounted to 63.6%. Further, in the experiment on HCT116p53+/+ cell, the “% Inhibition of HCT116p53+/+ cell proliferation at 10 µM” value was 55.3% and 49.6%.
